According to patent US20250288573A1 (H. LEE MOFFITT CANCER CENTER AND RESEARCH INSTITUTE, INC., priority 2018, published 2025):
Read-outs that look alike come from different tables or passages of the source.

What was measured:
CRBN = target: T1, CRBN (Homo sapiens, UniProt Q96SW2); assay: Western blot for expression of CRBN relative to vinculin in human T cells (CRBN degradation); type: cell-based; conditions: for remaining activity at 10 µM / remaining activity at 0.01 µM: read-out: Relative Density of CRBN (% of DMSO); for remaining activity at 0.01 µM: 24 h, 10nM, human T cells, 24 hours
T1 construct: endogenous in cells; host or cells: primary human T cells / CD8+ T cells from peripheral blood
T1 sequence (Q96SW2 whole entry): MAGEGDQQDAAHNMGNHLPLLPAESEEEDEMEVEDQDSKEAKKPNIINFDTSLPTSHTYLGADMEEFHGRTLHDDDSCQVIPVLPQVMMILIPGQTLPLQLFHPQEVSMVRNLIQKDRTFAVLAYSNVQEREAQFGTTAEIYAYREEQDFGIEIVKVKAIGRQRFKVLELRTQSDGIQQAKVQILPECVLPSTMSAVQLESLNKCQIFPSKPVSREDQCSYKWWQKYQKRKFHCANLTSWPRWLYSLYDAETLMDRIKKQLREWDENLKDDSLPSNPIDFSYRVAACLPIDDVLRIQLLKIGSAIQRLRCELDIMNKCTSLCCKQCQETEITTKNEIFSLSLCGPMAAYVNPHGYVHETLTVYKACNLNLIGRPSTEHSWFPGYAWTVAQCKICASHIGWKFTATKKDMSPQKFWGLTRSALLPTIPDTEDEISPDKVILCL
Excerpt: Bortez=bortezomib; MG132=proteasome inhibitor; MLN4924=NEDD8 inhibitor.
This assay is a standard Western blot assay for expression of CRBN relative to vinculin.
[…] 0.1 percent DMSO was used as a vehicle control.

cereblon (CRBN) = cereblon (CRBN) (Homo sapiens, UniProt Q96SW2); assay: Kd and % inhibition from FI; type: binding; conditions: for inhibition at 200 µM: read-out: % inhibition @ 200 uM from *FI
Sequence of cereblon (CRBN) (Q96SW2 whole entry, species assumed): as the sequence (Q96SW2 whole entry) above

[1] = FI, read-out: Kd (FI) (converted)
[2] = cell does not state FI or ITC, read-out: Kd (A) FI/ITC

| Structure (SMILES) | remaining activity at 10 µM (CRBN) | remaining activity at 0.01 µM (CRBN) | Kd (cereblon (CRBN); [1]) | inhibition at 200 µM (cereblon (CRBN)) | other results |
| --- | --- | --- | --- | --- | --- |
| O=C(CCc1cccc2c1CN(C1CCC(=O)NC1=O)C2=O)NCCOCCOCCNC(=O)CCc1cccc2c1CN(C1CCC(=O)NC1=O)C2=O (stereo not drawn) [SM3-005, N,N′-((Ethane-1,2-diylbis(oxy))bis(ethane-2,1-diyl))bis(3-(2-(2,6-dioxopiperidin-3-yl)-1-oxoisoindolin-4-yl)propanamide)] | 91.1% | 80.6% | 15 ± 0.97 µM | 72.8 ± 1.38% |  |
| O=C(/C=C/c1cccc2c1CN(C1CCC(=O)NC1=O)C2=O)NCCOCCOCCNC(=O)/C=C/c1cccc2c1CN(C1CCC(=O)NC1=O)C2=O (stereo not drawn) [SM3-003, (2E,2′E)-N,N′-((ethane-1,2-diylbis(oxy))bis(ethane-2,1-diyl))bis(3-(2-(2,6-dioxopiperidin-3-yl)-1-oxoisoindolin-4-yl)acrylamide)] | 102% | 125% | 14.3 ± 0.05 µM | 72 ± 0.8% |  |
| O=C1CCC(N2C(=O)c3cccc(NC(=O)[C@H]4CC[C@@H](C(=O)Nc5cccc6c5C(=O)N(C5CCC(=O)NC5=O)C6=O)CC4)c3C2=O)C(=O)N1 (stereo partly drawn) [EC1-133, (cis)-N^1,N^4-bis(2-(2,6-Dioxopiperidin-3-yl)-1,3-dioxoisoindolin-4-yl)cyclohexane-1,4-dicarboxamide] | 10.3% | 119% |  |  | % inhibition @ 200 uM from *FI (cereblon (CRBN)): n.b. |
| O=C(/C=C/c1cccc2c1CN(C1CCC(=O)NC1=O)C2=O)NCCOCCNC(=O)/C=C/c1cccc2c1CN(C1CCC(=O)NC1=O)C2=O (stereo not drawn) [SM3-006, (2E,2′E)-N,N′-(Oxybis(ethane-2,1-diyl))bis(3-(2-(2,6-dioxopiperidin-3-yl)-1-oxoisoindolin-4-yl)acrylamide)] | 85.3% | 110% | 15.2 ± 1.52 µM | 72.9 ± 1.19% |  |
| O=C(COc1cccc2c1C(=O)N(C1CCC(=O)NC1=O)C2=O)NCCCOCCCNC(=O)COc1cccc2c1C(=O)N(C1CCC(=O)NC1=O)C2=O (stereo not drawn) [SM2-126] | 13.2% | 136% | 13.7 ± 0.7 µM | 88.9 ± 1.54% |  |
| O=C(CCc1cccc2c1CN(C1CCC(=O)NC1=O)C2=O)NCCOCCOCCOCCNC(=O)CCc1cccc2c1CN(C1CCC(=O)NC1=O)C2=O (stereo not drawn) [SM3-011, N,N′-(((Oxybis(ethane-2,1-diyl))bis(oxy))bis(ethane-2,1-diyl))bis(3-(2-(2,6-dioxopiperidin-3-yl)-1-oxoisoindolin-4-yl)propanamide)] | 85.4% | 102% | 14.8 ± 1.08 µM | 73.39 ± 0.71% |  |
| Cc1sc2c(c1C)C(c1ccc(Cl)cc1)=N[C@H](CC(=O)NCCCCC(=O)NC1CCC(=O)NC1=O)c1nnc(C)n1-2 (stereo partly drawn) [EC2-092] |  |  |  |  | Kd (cereblon (CRBN); [2]): 226 ± 21.6 µM |
| Cc1ncsc1-c1ccc(CNC(=O)[C@@H]2C[C@@H](O)CN2C(=O)[C@@H](NC(=O)COCCOCCOCCOCCCc2cccc3c2CN(C2CCC(=O)NC2=O)C3=O)C(C)(C)C)cc1 (stereo partly drawn) [SR3-108, (2S,4R)-1-((2S)-2-(tert-Butyl)-18-(2-(2,6-dioxopiperidin-3-yl)-1-oxoisoindolin-4-yl)-4-oxo-6,9,12,15-tetraoxa-3-azaoctadecanoyl)-4-hydroxy-N-(4-(4-methylthiazol-5-yl)benzyl)pyrrolidine-2-carboxamide] |  |  | 13.6 ± 1.51 µM |  |  |
| Cc1sc2c(c1C)C(c1ccc(Cl)cc1)=N[C@H](CC(=O)NCCCCC(=O)N[C@H]1CC(=O)NC1=O)c1nnc(C)n1-2 [XS01-089] |  |  |  |  | Kd (cereblon (CRBN); [2]): 353 ± 108 µM |
| Cc1sc2c(c1C)C(c1ccc(Cl)cc1)=N[C@@H](CC(=O)NCCCCC(=O)Nc1cccc(C(=O)NC3CCC(=O)NC3=O)c1)c1nnc(C)n1-2 (stereo partly drawn) [EC2-088] |  |  |  |  | CRBN Degradation (WB)/ IC50/DC50 Relative Density of CRBN (% of DMSO): value without qualifier (CRBN; no concentration or unit printed): 43.73 ± 24.45 (1/25/19) |
| O=C1CCC(N2C(=O)c3cccc(NC(=O)CCc4cn(CC(=O)Nc5cccc6c5C(=O)N(C5CCC(=O)NC5=O)C6=O)nn4)c3C2=O)C(=O)N1 (stereo not drawn) [XS01-126, N-(2-(2,6-Dioxopiperidin-3-yl)-1,3-dioxoisoindolin-4-yl)-3-(1-(2-((2-(2,6-dioxopiperidin-3-yl)-1,3-dioxoisoindolin-4-yl)amino)-2-oxoethyl)-1H-1,2,3-triazol-4-yl)propanamide] | 131% | 207% |  |  |  |
| Cc1nc2c(NC(=O)c3ccc(C(=O)Nc4cccc5c(=O)n(C6CCC(=O)NC6=O)c(C)nc45)cc3)cccc2c(=O)n1C1CCC(=O)NC1=O (stereo not drawn) [XS01-059] | 356% | 69.2% |  |  | CRBN Degradation ** (WB) (CRBN; grade (+) to (++++) or words, key not given): No Degradation |
| Cc1nc2cccc(NC(=O)CCCCCCCCC(=O)Nc3cccc4nc(C)n(C5CCC(=O)NC5=O)c(=O)c34)c2c(=O)n1C1CCC(=O)NC1=O (stereo not drawn) [MA10-090, N1,N10-bis(3-(2,6-Dioxopiperidin-3-yl)-2-methyl-4-oxo-3,4-dihydroquinazolin-5-yl)decanediamide] | 82.2% | 132% |  |  |  |
| Cc1nc2cccc(NC(=O)Cn3cc(CCCC(=O)Nc4cccc5c4CN(C4CCC(=O)NC4=O)C5=O)nn3)c2c(=O)n1C1CCC(=O)NC1=O (stereo not drawn) [XS01-123, N-(2-(2,6-Dioxopiperidin-3-yl)-1-oxoisoindolin-4-yl)-4-(1-(2-((3-(2,6-dioxopiperidin-3-yl)-2-methyl-4-oxo-3,4-dihydroquinazolin-5-yl)amino)-2-oxoethyl)-1H-1,2,3-triazol-4-yl)butanamide] | 151% | 243% |  |  |  |

The next lines start with results.

| remaining activity at 10 µM (CRBN) | remaining activity at 0.01 µM (CRBN) | Kd (cereblon (CRBN); [1]) | inhibition at 200 µM (cereblon (CRBN)) | Structure (SMILES) | other results |
| --- | --- | --- | --- | --- | --- |
| 28.2% | 133% | 15.5 ± 2.26 µM | 47.9 ± 2% | O=C1CCC(N2Cc3c(NC(=O)CCCCCCCCC(=O)Nc4cccc5c4CN(C4CCC(=O)NC4=O)C5=O)cccc3C2=O)C(=O)N1 (stereo not drawn) [EC1-152, N^1,N^10-Bis(2-(2,6-dioxopiperidin-3-yl)-1-oxoisoindolin-4-yl)decanediamide] |  |
| 2.97% | 73.8% | 23.6 ± 2.55 µM | 83.6 ± 4% | O=C1CCC(N2Cc3c(NC(=O)CCCC(=O)Nc4cccc5c4CN(C4CCC(=O)NC4=O)C5=O)cccc3C2=O)C(=O)N1 (stereo not drawn) [EC1-148, N^1,N^5-Bis(2-(2,6-dioxopiperidin-3-yl)-1-oxoisoindolin-4-yl)glutaramide] |  |
| 33% | 33.4% |  |  | O=C1CCC(N2C(=O)c3cccc(NC(=O)CCCCCCCCC(=O)Nc4cccc5c4C(=O)N(C4CCC(=O)NC4=O)C5=O)c3C2=O)C(=O)N1 (stereo not drawn) [EC1-132, N^1,N^10-bis(2-(2,6-Dioxopiperidin-3-yl)-1,3-dioxoisoindolin-4-yl)decanediamide] | % inhibition @ 200 uM from *FI (cereblon (CRBN)): n.b. |
| 25.9% |  |  |  | O=C1CCC(NC(=O)c2cccc(NC(=O)CCCC(=O)Nc3cccc(C(=O)NC4CCC(=O)NC4=O)c3)c2)C(=O)N1 (stereo not drawn) [XS01-074, N^1,N^5-Bis(3-((2,6-Dioxopiperidin-3-yl)carbamoyl)phenyl)glutaramide] | Kd (cereblon (CRBN); [2]): 187 ± 16.2 µM |
| 6.33% | 99.3% | 18.3 ± 1.54 µM | 57.2 ± 10% | O=C1CCC(N2Cc3c(NC(=O)CCCCCCC(=O)Nc4cccc5c4CN(C4CCC(=O)NC4=O)C5=O)cccc3C2=O)C(=O)N1 (stereo not drawn) [EC1-150, N^1,N^8-Bis(2-(2,6-dioxopiperidin-3-yl)-1-oxoisoindolin-4-yl)octanediamide] |  |
| 4.91% | 30.5% |  | 18 ± 20% | O=C1CCC(N2C(=O)c3cccc(NC(=O)CCCCCC(=O)Nc4cccc5c4C(=O)N(C4CCC(=O)NC4=O)C5=O)c3C2=O)C(=O)N1 (stereo not drawn) [EC1-119, N^1,N^7-bis(2-(2,6-Dioxopiperidin-3-yl)-1,3-dioxoisoindolin-4-yl)heptanediamide] |  |
| 11.7% | 44.2% |  |  | O=C1CCC(N2C(=O)c3cccc(NC(=O)CCCCCCC(=O)Nc4cccc5c4C(=O)N(C4CCC(=O)NC4=O)C5=O)c3C2=O)C(=O)N1 (stereo not drawn) | % inhibition @ 200 uM from *FI (cereblon (CRBN)): n.b. |
| 32% | 137% | 14.2 ± 3.16 µM | 46.7 ± 9% | O=C1CCC(N2Cc3c(NC(=O)CCCCCCCC(=O)Nc4cccc5c4CN(C4CCC(=O)NC4=O)C5=O)cccc3C2=O)C(=O)N1 (stereo not drawn) [EC1-151, N^1,N^9-Bis(2-(2,6-dioxopiperidin-3-yl)-1-oxoisoindolin-4-yl)nonanediamide] |  |
| 71% | 138% |  |  | Cc1nc2cccc(NC(=O)CCCCCCCC(=O)Nc3cccc4nc(C)n(C5CCC(=O)NC5=O)c(=O)c34)c2c(=O)n1C1CCC(=O)NC1=O (stereo not drawn) [MA10-086, N1,N9-bis(3-(2,6-Dioxopiperidin-3-yl)-2-methyl-4-oxo-3,4-dihydroquinazolin-5-yl)nonanediamide] |  |
| 63.4% |  |  |  | O=C1CCC(NC(=O)c2cccc(NC(=O)CCCCCCCCC(=O)Nc3cccc(C(=O)NC4CCC(=O)NC4=O)c3)c2)C(=O)N1 (stereo not drawn) [XS01-075, N^1,N^10-Bis(3-((2,6-dioxopiperidin-3-yl)carbamoyl)phenyl)decanediamide] |  |
| 13.5% | 38.8% |  |  | O=C1CCC(N2Cc3ccc(NC(=O)CCCCCCC(=O)Nc4ccc5c(c4)C(=O)N(C4CCC(=O)NC4=O)C5)cc3C2=O)C(=O)N1 (stereo not drawn) [EC2-063, N^1,N^8-bis(2-(2,6-Dioxopiperidin-3-yl)-3-oxoisoindolin-5-yl)octanediamide] |  |
| 104% | 84.6% |  |  | O=C1CCC(NC(=O)CCCC(=O)NC2CCC(=O)NC2=O)C(=O)N1 (stereo not drawn) [XS01-095, N^1,N^5-Bis(2,6-dioxopiperidin-3-yl)glutaramide] |  |
| 133% | 116% |  |  | O=C1CCC(NC(=O)CCCCCCC(=O)NC2CCC(=O)NC2=O)C(=O)N1 (stereo not drawn) [XS01-093, N^1,N^8-Bis(2,6-dioxopiperidin-3-yl)octanediamide] |  |
